PubChem BioAssay (NCI)
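These data come from cells grown in 96-well plates and exposed to compound for 48 hours at five concentrations. Definition used: TGI = concentration required for complete inhibition of growth.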

How the values were obtained:
Assay in all cases: NCI-60 cell line screen, 48 h
A549 NSCLC = system: A549 NSCLC
HOP-92 NSCLC = system: HOP-92 NSCLC
SF-295 CNS = system: SF-295 CNS
NCI-H226 lung = system: NCI-H226 lung
A498 renal = system: A498 renal

| Compound | TGI (A549 NSCLC) [µM] | TGI (HOP-92 NSCLC) [µM] | TGI (SF-295 CNS) [µM] | TGI (NCI-H226 lung) [µM] | TGI (A498 renal) [µM] |
| --- | --- | --- | --- | --- | --- |
| Cc1cc(O)c(C(C)C)cc1N=Cc1ccccc1O | 43 | 1.82 | 26.6 | 20.4 | 66.2 |
| CC1(C)CC[C@]2(C(=O)O)[C@H](O)C[C@]3(C)C(=CC[C@@H]4[C@@]5(C)CC[C@H](OC6OC(C(=O)O)C(O)C(O)C6O)C(C)(C)[C@@H]5CC[C@]43C)[C@@H]2C1 (some centres not stated) | > 100 | 39.2 | > 100 | > 100 | 37.4 |
| CC1(C)C2CCC(N)(C2)C1O (configuration not stated) | > 100 | > 100 | > 100 | > 100 | > 100 |
| Nc1ccc(-c2nc3ccccc3s2)cc1Br | > 100 | > 100 | > 100 | > 100 | > 32.5 |
| CN(C)c1ccc(/C=c2/c3cc([N+](=O)[O-])ccc3n3c2cc(-c2ccccc2)[n+]3C)cc1 | 11.7 | 3.16 | 7.51 | 36 | 7.94 |
| C#CCOC(=O)C(N)CCSC (configuration not stated) | > 100 | > 100 | > 100 | > 100 | > 100 |
| CC1CN=C(c2ccc(COc3ccc(C4=NCC(C)N4)cc3)cc2)N1 (configuration not stated) | > 100 | > 100 | > 100 |  | > 100 |
| Brc1cccc[n+]1-c1ccc2cc(-[n+]3ccccc3Br)ccc2c1 | > 100 |  | > 100 | > 100 | > 100 |
| CC(C)c1cccc(C(C)C)c1OS(=O)(=O)NC(=O)OC(C(F)(F)F)C(F)(F)F | > 100 | 59.9 | 65.3 | > 100 | > 100 |
| CC1(C)CC2C(C1=O)C1(C)CCCC2(C)C1=O (configuration not stated) | > 100 | > 100 | > 100 | > 100 |  |
| O=C(O)CC(O)(C(=O)O)C(O)C(=O)O (configuration not stated) | > 1000 |  | > 1000 | > 1000 |  |
| CC1(C)c2ccccc2C(O)C12CCC(=O)CC2 (configuration not stated) | 93.9 | > 100 | > 100 | > 100 | > 100 |
| C[N+](C)(N)c1nc(N)c(C#N)c(C#N)c1C#N | > 10 |  | > 10 | > 10 | > 10 |
| Cc1ncc([N+](=O)[O-])n1CCNC(=O)CCCCCn1ccnc1[N+](=O)[O-] | > 100 |  | > 100 | > 100 | > 100 |
| C=C1c2nc3ccccc3n2C=C(c2ccc(OC)cc2)N1c1ccc(OCCN2CCOCC2)cc1 | > 100 | > 100 | > 100 | > 100 | > 100 |
| O=C(Oc1cccc(Cl)c1)c1cc2cc(CCl)ccc2oc1=O | > 100 | 43.1 | > 100 | > 100 |  |
| CC1=CC(=O)/C(=C/n2c(=S)[nH]c3ccccc32)C(=O)O1 | > 100 | > 100 | > 100 | > 100 | > 100 |
